We go through seven cell lines from the supplement of paper PMC10307832.

What all share (assay): relative viability (nuclei count vs DMSO), 5 days (fraction); higher = more cells survive
Compound in the assay “Pictilisib + Dasatinib”: CS(=O)(=O)N1CCN(Cc2cc3nc(-c4cccc5[nH]ncc45)nc(N4CCOCC4)c3s2)CC1 [Pictilisib] + Cc1nc(Nc2ncc(C(=O)Nc3c(C)cccc3Cl)s2)cc(N2CCN(CCO)CC2)n1 [Dasatinib] (partner 0.075 µM)
In outline:
(§1)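 Nuclei were stained with Hoechst during a one-step fixation (final 0.05% Triton X-100, 1% formaldehyde, 1 ug/ml Hoechst) carried out 5 days after dosing, then counted on 4× images. The cells, lung cancer lines in 1536-well plates, had been dosed by pin tool the day after seeding with one drug alone or a fixed anchor-drug dose plus five library-drug doses (not always all listed) in √10 steps. Relative viability is the nuclei count in treated wells divided by that in vehicle wells, and each value is the median of duplicate plates.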

Compound in the assay “MK-2206 + Navitoclax”: NC1(c2ccc(-c3nc4ccn5c(=O)[nH]nc5c4cc3-c3ccccc3)cc2)CCC1 [MK-2206] + CC1(C)CCC(c2ccc(Cl)cc2)=C(CN2CCN(c3ccc(C(=O)NS(=O)(=O)c4ccc(N[C@H](CCN5CCOCC5)CSc5ccccc5)c(S(=O)(=O)C(F)(F)F)c4)cc3)CC2)C1 [Navitoclax] (partner 0.5 µM)
In outline: as §1

Compound in the assay “MK-2206 + OSI-027”: NC1(c2ccc(-c3nc4ccn5c(=O)[nH]nc5c4cc3-c3ccccc3)cc2)CCC1 [MK-2206] + COc1cccc2cc(-c3nc([C@H]4CC[C@H](C(=O)O)CC4)n4ncnc(N)c34)[nH]c12 [OSI-027] (partner 0.5 µM)
In a few lines:
as §1

Compound in the assay “MK-2206 + Phenformin”: NC1(c2ccc(-c3nc4ccn5c(=O)[nH]nc5c4cc3-c3ccccc3)cc2)CCC1 [MK-2206] + N=C(N)NC(=N)NCCc1ccccc1 [Phenformin] (partner 250 µM)
In outline: as §1

Compound in the assay “MK-2206 + Pemetrexed”: NC1(c2ccc(-c3nc4ccn5c(=O)[nH]nc5c4cc3-c3ccccc3)cc2)CCC1 [MK-2206] + Nc1nc2[nH]cc(CCc3ccc(C(=O)N[C@@H](CCC(=O)O)C(=O)O)cc3)c2c(=O)[nH]1 [Pemetrexed] (partner 0.2 µM)
In outline: as §1

On to NCI-H460, for which the relative viability came out at 0.531 in the assay with Pictilisib + Dasatinib (first compound 0.02 µM); 0.545 with Pictilisib + Dasatinib (first compound 0.06325 µM); 0.205 with Pictilisib + Dasatinib (first compound 0.6325 µM); 0.0803 with Pictilisib + Dasatinib (first compound 2 µM); 1.16 in the assay with MK-2206 + Navitoclax (first compound 0.01 µM); 1.16 with MK-2206 + Navitoclax (first compound 0.03162 µM). For the same cell line, the relative viability in the assay with MK-2206 + Navitoclax (first compound 0.3162 µM) is 1.21; with MK-2206 + Navitoclax (first compound 1 µM) it was 1.07; in the assay with MK-2206 + OSI-027 (first compound 0.01 µM), 0.642; with MK-2206 + OSI-027 (first compound 0.03162 µM) it was 0.521; with MK-2206 + OSI-027 (first compound 0.3162 µM) it was 0.321; in the assay with MK-2206 + OSI-027 (first compound 1 µM), 0.455. Also, the relative viability with MK-2206 + Phenformin (first compound 0.01 µM) came out at 0.489; with MK-2206 + Phenformin (first compound 0.03162 µM) it was 0.613; with MK-2206 + Phenformin (first compound 0.3162 µM) it was 0.521; with MK-2206 + Phenformin (first compound 1 µM), 0.45; with MK-2206 + Pemetrexed (first compound 0.01 µM) it was 0.0681; with MK-2206 + Pemetrexed (first compound 0.03162 µM), 0.0647. Further, the relative viability with MK-2206 + Pemetrexed (first compound 0.3162 µM) was found to be 0.0757; with MK-2206 + Pemetrexed (first compound 1 µM), 0.0577.

Take NCI-H520: the relative viability in the assay with Pictilisib + Dasatinib (first compound 0.02 µM) turned out to be 0.176; with Pictilisib + Dasatinib (first compound 0.06325 µM) it was 0.135; with Pictilisib + Dasatinib (first compound 0.6325 µM), 0.146; with Pictilisib + Dasatinib (first compound 2 µM), 0.114; with MK-2206 + Navitoclax (first compound 0.01 µM), 1.11; with MK-2206 + Navitoclax (first compound 0.03162 µM), 1.09. Besides, the relative viability was determined as 0.701 with MK-2206 + Navitoclax (first compound 0.3162 µM); 0.489 with MK-2206 + Navitoclax (first compound 1 µM); 0.243 in the assay with MK-2206 + OSI-027 (first compound 0.01 µM); 0.233 in the assay with MK-2206 + OSI-027 (first compound 0.03162 µM); 0.17 in the assay with MK-2206 + OSI-027 (first compound 0.3162 µM); 0.238 in the assay with MK-2206 + OSI-027 (first compound 1 µM). Moreover, the relative viability with MK-2206 + Phenformin (first compound 0.01 µM) was 0.551; in the assay with MK-2206 + Phenformin (first compound 0.03162 µM), 0.523; with MK-2206 + Phenformin (first compound 0.3162 µM), 0.212; with MK-2206 + Phenformin (first compound 1 µM), 0.254; in the assay with MK-2206 + Pemetrexed (first compound 0.01 µM), 0.612; with MK-2206 + Pemetrexed (first compound 0.03162 µM) it was 0.68. In addition, the relative viability with MK-2206 + Pemetrexed (first compound 0.3162 µM) came out at 0.351; in the assay with MK-2206 + Pemetrexed (first compound 1 µM), 0.183.

Turning to NCI-H596, the relative viability is 0.569 in the assay with Pictilisib + Dasatinib (first compound 0.02 µM); 0.537 with Pictilisib + Dasatinib (first compound 0.06325 µM); 0.325 with Pictilisib + Dasatinib (first compound 0.6325 µM); 0.207 with Pictilisib + Dasatinib (first compound 2 µM); 0.948 in the assay with MK-2206 + Navitoclax (first compound 0.01 µM); 1.06 in the assay with MK-2206 + Navitoclax (first compound 0.03162 µM). Further, the relative viability with MK-2206 + Navitoclax (first compound 0.3162 µM) stood at 0.756; with MK-2206 + Navitoclax (first compound 1 µM), 0.669; with MK-2206 + OSI-027 (first compound 0.01 µM), 0.706; in the assay with MK-2206 + OSI-027 (first compound 0.03162 µM) it was 0.887; with MK-2206 + OSI-027 (first compound 0.3162 µM), 0.591; in the assay with MK-2206 + OSI-027 (first compound 1 µM), 0.41. Besides, the relative viability with MK-2206 + Phenformin (first compound 0.01 µM) was 0.738; with MK-2206 + Phenformin (first compound 0.03162 µM), 0.956; with MK-2206 + Phenformin (first compound 0.3162 µM), 0.651; with MK-2206 + Phenformin (first compound 1 µM) it was 0.481; with MK-2206 + Pemetrexed (first compound 0.01 µM), 0.45; with MK-2206 + Pemetrexed (first compound 0.03162 µM), 0.567. Also, the relative viability in the assay with MK-2206 + Pemetrexed (first compound 0.3162 µM) turned out to be 0.502; in the assay with MK-2206 + Pemetrexed (first compound 1 µM) it was 0.498.

Turning to NCI-H647, the relative viability with Pictilisib + Dasatinib (first compound 0.02 µM) stood at 0.195; in the assay with Pictilisib + Dasatinib (first compound 0.06325 µM), 0.172; with Pictilisib + Dasatinib (first compound 0.6325 µM), 0.108; in the assay with Pictilisib + Dasatinib (first compound 2 µM), 0.0934; with MK-2206 + Navitoclax (first compound 0.01 µM) it was 1.02; in the assay with MK-2206 + Navitoclax (first compound 0.03162 µM), 1.21. Further, the relative viability in the assay with MK-2206 + Navitoclax (first compound 0.3162 µM) was determined as 0.969; in the assay with MK-2206 + Navitoclax (first compound 1 µM), 1.02; with MK-2206 + OSI-027 (first compound 0.01 µM), 0.573; with MK-2206 + OSI-027 (first compound 0.03162 µM) it was 0.584; with MK-2206 + OSI-027 (first compound 0.3162 µM), 0.469; with MK-2206 + OSI-027 (first compound 1 µM) it was 0.641. For the same cell line, the relative viability in the assay with MK-2206 + Phenformin (first compound 0.01 µM) turned out to be 0.479; with MK-2206 + Phenformin (first compound 0.03162 µM) it was 0.542; in the assay with MK-2206 + Phenformin (first compound 0.3162 µM), 0.38; with MK-2206 + Phenformin (first compound 1 µM), 0.542; with MK-2206 + Pemetrexed (first compound 0.01 µM), 0.201; with MK-2206 + Pemetrexed (first compound 0.03162 µM), 0.165. Also, the relative viability with MK-2206 + Pemetrexed (first compound 0.3162 µM) was 0.144; with MK-2206 + Pemetrexed (first compound 1 µM), 0.134.

Regarding NCI-H838, the relative viability with Pictilisib + Dasatinib (first compound 0.02 µM) was 0.346; with Pictilisib + Dasatinib (first compound 0.06325 µM), 0.277; with Pictilisib + Dasatinib (first compound 0.6325 µM) it was 0.279; with Pictilisib + Dasatinib (first compound 2 µM), 0.217; in the assay with MK-2206 + Navitoclax (first compound 0.01 µM) it was 1.15; with MK-2206 + Navitoclax (first compound 0.03162 µM), 1.19. The relative viability in the assay with MK-2206 + Navitoclax (first compound 0.3162 µM) was 1.19; in the assay with MK-2206 + Navitoclax (first compound 1 µM) it was 1.04; in the assay with MK-2206 + OSI-027 (first compound 0.01 µM) it was 0.484; in the assay with MK-2206 + OSI-027 (first compound 0.03162 µM), 0.397; in the assay with MK-2206 + OSI-027 (first compound 0.3162 µM), 0.327; with MK-2206 + OSI-027 (first compound 1 µM), 0.366. Further, the relative viability is 0.554 with MK-2206 + Phenformin (first compound 0.01 µM); 0.722 with MK-2206 + Phenformin (first compound 0.03162 µM); 0.517 in the assay with MK-2206 + Phenformin (first compound 0.3162 µM); 0.447 in the assay with MK-2206 + Phenformin (first compound 1 µM); 0.245 with MK-2206 + Pemetrexed (first compound 0.01 µM); 0.227 with MK-2206 + Pemetrexed (first compound 0.03162 µM). The relative viability came to 0.255 with MK-2206 + Pemetrexed (first compound 0.3162 µM) and 0.201 with MK-2206 + Pemetrexed (first compound 1 µM).

With NCI-H1355, the relative viability in the assay with Pictilisib + Dasatinib (first compound 0.02 µM) came to 0.645; with Pictilisib + Dasatinib (first compound 0.06325 µM) it was 0.711; with Pictilisib + Dasatinib (first compound 0.6325 µM), 0.469; in the assay with Pictilisib + Dasatinib (first compound 2 µM), 0.331; in the assay with MK-2206 + Navitoclax (first compound 0.01 µM), 0.961; with MK-2206 + Navitoclax (first compound 0.03162 µM), 0.828. Besides, the relative viability is 0.961 in the assay with MK-2206 + Navitoclax (first compound 0.3162 µM); 0.819 with MK-2206 + Navitoclax (first compound 1 µM); 0.394 with MK-2206 + OSI-027 (first compound 0.01 µM); 0.433 in the assay with MK-2206 + OSI-027 (first compound 0.03162 µM); 0.289 with MK-2206 + OSI-027 (first compound 0.3162 µM); 0.235 with MK-2206 + OSI-027 (first compound 1 µM). In addition, the relative viability with MK-2206 + Phenformin (first compound 0.01 µM) is 0.434; with MK-2206 + Phenformin (first compound 0.03162 µM), 0.476; with MK-2206 + Phenformin (first compound 0.3162 µM), 0.4; in the assay with MK-2206 + Phenformin (first compound 1 µM) it was 0.317; with MK-2206 + Pemetrexed (first compound 0.01 µM), 1.04; in the assay with MK-2206 + Pemetrexed (first compound 0.03162 µM), 1.02. For the same cell line, the relative viability was 1.02 in the assay with MK-2206 + Pemetrexed (first compound 0.3162 µM) and 1.04 with MK-2206 + Pemetrexed (first compound 1 µM).

As for NCI-H1395, the relative viability with Pictilisib + Dasatinib (first compound 0.02 µM) came out at 0.406; with Pictilisib + Dasatinib (first compound 0.06325 µM), 0.392; in the assay with Pictilisib + Dasatinib (first compound 0.6325 µM), 0.296; in the assay with Pictilisib + Dasatinib (first compound 2 µM), 0.265; in the assay with MK-2206 + Navitoclax (first compound 0.01 µM), 1.17; with MK-2206 + Navitoclax (first compound 0.03162 µM), 1.63. The relative viability in the assay with MK-2206 + Navitoclax (first compound 0.3162 µM) was found to be 1.12; with MK-2206 + Navitoclax (first compound 1 µM) it was 0.927; with MK-2206 + OSI-027 (first compound 0.01 µM) it was 0.699; with MK-2206 + OSI-027 (first compound 0.03162 µM), 0.588; with MK-2206 + OSI-027 (first compound 0.3162 µM), 0.437; in the assay with MK-2206 + OSI-027 (first compound 1 µM), 0.471. Further, the relative viability in the assay with MK-2206 + Phenformin (first compound 0.01 µM) amounted to 0.508; with MK-2206 + Phenformin (first compound 0.03162 µM), 0.481; with MK-2206 + Phenformin (first compound 0.3162 µM), 0.4; in the assay with MK-2206 + Phenformin (first compound 1 µM), 0.354; with MK-2206 + Pemetrexed (first compound 0.01 µM) it was 0.807; with MK-2206 + Pemetrexed (first compound 0.03162 µM), 0.869. Also, the results for the relative viability with MK-2206 + Pemetrexed (first compound 0.3162 µM) and with MK-2206 + Pemetrexed (first compound 1 µM) were 0.79 and 0.812, respectively.
